Reference: PubChem BioAssay AID1918943 (Molecular Pharmacology Branch, DTP, NCI, 2023)
Values joined by “and” are separate entries in the source; they are usually repeats but may differ in a detail not shown here. Equal entries are not always repeated.

System: 855422-203-R-J1-PDC complex spheroid viability
Experiment: Anticancer human tumor 855422-203-R-J1-PDC patient-derived bladder carcinoma cell line growth inhibition
Conditions: for viability, T/C: stronger effect = lower value
Excerpt: Multicellular complex tumor spheroid response to LSD1 Inhibitor Iadademstat in combination with a variety of drugs and investigational agents in selected tumor cell lines
The current study was undertaken to assess response to LSD1 inhibitors in combination with standard-of-care drugs and investigational agents in solid tumor complex spheroid models as well as in the K-562 leukemia. Complex spheroids include a stromal component modeled by human endothelial cells (HUVEC) and fibroblasts modeled by human mesenchymal stem cells (MSCs). The concentration ranges selected for each drug and investigational agent were based upon clinically achievable concentrations if the clinical Cmax of the agent was known.
Compounds. The drugs and investigational agents used in this study are listed on Table 1. All of the agents used, including staurosporine (NSC755774) and gemcitabine (NSC613327), were obtained from the Developmental Therapeutics Program, NCI. FDA-approved anticancer drugs are available from the NCI at http://dtp.nci.nih.gov/branches/dscb/oncology_drugset_explanation.html. Drugs and investigational agents were >95% pure by proton nuclear magnetic resonance (NMR) and liquid chromatography/mass spectrometry (LC/MS). Stock solutions were prepared at 400x in DMSO, stored at -70 degrees C, and diluted in fresh medium prior to their use. The final concentration of DMSO in cell culture wells never exceeded 0.25% (v/v). The FDA-approved anticancer drug set is available from the Developmental Therapeutics Program at https://dtp.cancer.gov/organization/dscb/obtaining/available_plates.htm. All drugs and investigational agents were tested over a range starting from a high concentration at or near the clinical Cmax and decreasing in half-log increments. If the clinical Cmax for an agent had not been determined, the highest concentration tested was 10 microM.
Cell Lines. The patient-derived cancer cell (PDC) lines: 292921-168-R-J2-PDC, K24384-001-R-PDC, and 521955-158-R2-J5-PDC pancreatic carcinomas, 556581-035-R-J1 ovarian carcinoma, 324938-238-R-J1-PDC, 855422-203-R-J1-PDC and 883617-216-R-J1-PDC urothelial bladder carcinomas, 743489-274-T-PDC renal cell carcinoma, 138582-R-J1 Merkel cell tumor, K60290-347-R-J1 and K57222-313-R-J1-PDC glioblastomas, 653999-131-R-J2-PDC, LG0703-F948-PDC, and 349418-098-R-PDC non-small cell lung carcinomas, 885512-296-R-J2-PDC, 171881-019-R-J1-PDC breast carcinomas and 186277-243-T-J2-PDC and 233499-124-R-J2-PDC colon carcinomas were obtained from the NCI Patient-Derived Models Repository (PDMR, https://pdmr.cancer.gov). The established cell lines NCI/ADR-RES (RRID:CVCL_14520 and OVCAR-5 (RRID:CVCL_1628) ovarian carcinomas, 786-O (RRID:CVCL_1051) and A498 (RRID:CVCL_A498) renal cell carcinoma, NCI-H211 (ATCC, cat. CRL-5824; RRID:CVCL_1529), NCI-H196 (ATCC, cat. CRL-5823, RRID:CVCL_1509), SW 1271 (ATCC, cat. CRL-2177, RRID:CVCL_1716) and NCI-H1876 (ATCC, cat. CRL-5902, RRID:CVCL_1503) small cell lung carcinomas, MDA-MB-231 (RRID:CVCL_0062) and MDA-MB-468 (RRID:CVCL_0419)breast carcinomas (10-12). Pooled donor human umbilical vein endothelial cells (HUVEC, Lonza, cat. CC-2519) and human mesenchymal stem cells (hMSC, Lonza, cat. PT-2501) were purchased from Lonza (Walkersville, MD).
Cell Culture. All cells were maintained in an incubator at 37 degrees C and 5% CO2 with 95% humidity. The PDC lines were cultured according to standard operating procedures established by the NCI PDMR (https://pdmr.cancer.gov). Briefly all PDCs were thawed and cultured in Matrigel-coated flasks prepared with a working solution of 1X Ham's F-12 nutrient mix, without supplementation (Invitrogen, Waltham, MA, cat. 11765054), 100 U/mL penicillin-streptomycin (Invitrogen, cat. 15140122), and 2.5% Matrigel (Corning Inc., Corning, NY, cat. 354248) for the first three passages. […]

[1] = curve of first compound, second compound 0.1 µM
[2] = curve of first compound, second compound 0.316 µM
[3] = curve of first compound, second compound 1 µM
[4] = curve of first compound, second compound 3.16 µM
[5] = curve of first compound, second compound 10 µM
[6] = second compound 0.1 µM, first compound 0.0316 µM
[7] = second compound 0.1 µM, first compound 0.1 µM
[8] = second compound 0.1 µM, first compound 0.316 µM
[9] = second compound 0.1 µM, first compound 1 µM
[10] = second compound 0.1 µM, first compound 3.16 µM
[11] = second compound 0.1 µM, first compound 10 µM
[12] = second compound 0.316 µM, first compound 0.0316 µM
[13] = second compound 0.316 µM, first compound 0.1 µM
[14] = second compound 0.316 µM, first compound 0.316 µM
[15] = second compound 0.316 µM, first compound 1 µM
[16] = second compound 0.316 µM, first compound 3.16 µM
[17] = second compound 0.316 µM, first compound 10 µM
[18] = second compound 1 µM, first compound 0.0316 µM
[19] = second compound 1 µM, first compound 0.1 µM
[20] = second compound 1 µM, first compound 0.316 µM
[21] = second compound 1 µM, first compound 1 µM
[22] = second compound 1 µM, first compound 3.16 µM
[23] = second compound 1 µM, first compound 10 µM
[24] = second compound 3.16 µM, first compound 0.0316 µM
[25] = second compound 3.16 µM, first compound 0.1 µM
[26] = second compound 3.16 µM, first compound 0.316 µM
[27] = second compound 3.16 µM, first compound 1 µM
[28] = second compound 3.16 µM, first compound 3.16 µM
[29] = second compound 3.16 µM, first compound 10 µM
[30] = second compound 10 µM, first compound 0.0316 µM
[31] = second compound 10 µM, first compound 0.1 µM
[32] = second compound 10 µM, first compound 0.316 µM
[33] = second compound 10 µM, first compound 1 µM
[34] = second compound 10 µM, first compound 3.16 µM
[35] = second compound 10 µM, first compound 10 µM
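Further: drug exposure lasted 7 days starting on day 3 after seeding.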
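Wherever viability, T/C is given: luminescence viability as percent of DMSO vehicle wells = 100%.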

| SMILES | IC50 [1] | IC50 [2] | IC50 [3] | IC50 [4] | IC50 [5] | viability, T/C [6] | viability, T/C [7] | viability, T/C [8] | viability, T/C [9] | viability, T/C [12] | viability, T/C [13] | viability, T/C [14] | viability, T/C [15] | viability, T/C [18] | viability, T/C [19] | viability, T/C [20] | viability, T/C [21] | viability, T/C [24] | viability, T/C [25] | viability, T/C [26] | also measured |
| --- | --- | --- | --- | --- | --- | --- | --- | --- | --- | --- | --- | --- | --- | --- | --- | --- | --- | --- | --- | --- | --- |
| CC1(C)CCC(CN2CCN(c3ccc(C(=O)NS(=O)(=O)c4ccc(NCC5CCOCC5)c([N+](=O)[O-])c4)c(Oc4cnc5[nH]ccc5c4)c3)CC2)=C(c2ccc(Cl)cc2)C1 + NC1CCC(NC2CC2c2ccccc2)CC1 | 6.21 µM | 6.16 µM | 6.04 µM | 5.85 µM | 5.53 µM | 103% | 94.7% | 95.6% | 101% | 96.7% | 95.1% | 88.5% | 100% | 94.4% | 99.1% | 78.7% | 93.3% | 85.4% | 84.3% | 109% | viability, T/C [10]: 93.4%; viability, T/C [11]: 19.2%; viability, T/C [16]: 93.9%; viability, T/C [17]: 18%; viability, T/C [22]: 102%; viability, T/C [23]: 16.2%; viability, T/C [27]: 101%; viability, T/C [28]: 86.2%; viability, T/C [29]: 18.3%; viability, T/C [30]: 82.3%; viability, T/C [31]: 78.4%; viability, T/C [32]: 92.4%; viability, T/C [33]: 72.2%; viability, T/C [34]: 83.8%; viability, T/C [35]: 16.2% |
| CCc1c2c(nc3ccc(O)cc13)-c1cc3c(c(=O)n1C2)COC(=O)[C@]3(O)CC | – | – | – | – | – | – | – | – | – | – | – | – | – | – | – | – | – | – | – | – | viability, T/C (compound 0.000949 µM): 14.2% and 14.1%; viability, T/C (compound 0.003 µM): 10.3% and 11.1%; viability, T/C (compound 0.00949 µM): 6.95% and 8.29%; viability, T/C (compound 0.03 µM): 5.21% and 4.8%; viability, T/C (compound 0.0949 µM): 3.58% and 2.82%; viability, T/C (compound 0.3 µM): 1.67% and 10.8%; IC50 (curve of compound): < 0.000949 µM |
| CCN(c1cc(-c2ccc(CN3CCOCC3)cc2)cc(C(=O)NCc2c(C)cc(C)[nH]c2=O)c1C)C1CCOCC1 | – | – | – | – | – | – | – | – | – | – | – | – | – | – | – | – | – | – | – | – | viability, T/C (compound 0.00949 µM): 105% and 109%; viability, T/C (compound 0.03 µM): 95.1% and 101%; viability, T/C (compound 0.0949 µM): 94.6% and 97.5%; viability, T/C (compound 0.3 µM): 86.5% and 91.6%; viability, T/C (compound 0.949 µM): 88% and 88.5%; viability, T/C (compound 3 µM): 84.7% and 89%; IC50 (curve of compound): > 3 µM |
| CC(C)c1c(-c2ccccc2)nc2c(C#N)c[nH]n2c1=O + NC1CC1c1ccc(-c2cccc(O)c2)cc1 | > 10 µM | > 10 µM | > 10 µM | > 10 µM | > 10 µM | 96.8% | 109% | 93.8% | 95.7% | 98.2% | 94.7% | 99.7% | 87.4% | 96.5% | 102% | 93.6% | 86.2% | 98.8% | 96% | 94.2% | viability, T/C [10]: 95.5%; viability, T/C [11]: 86.2%; viability, T/C [16]: 88%; viability, T/C [17]: 83.6%; viability, T/C [22]: 90.5%; viability, T/C [23]: 80.4%; viability, T/C [27]: 88.9%; viability, T/C [28]: 86.1%; viability, T/C [29]: 83.7%; viability, T/C [30]: 86.1%; viability, T/C [31]: 86.6%; viability, T/C [32]: 88.7%; viability, T/C [33]: 86.9%; viability, T/C [34]: 81.3%; viability, T/C [35]: 73.9% |
| CC1COCCN1c1cc(-c2ccnn2C)c2ccnc(-c3ccn[nH]3)c2n1 (centres undefined) + NC1CC1c1ccc(-c2cccc(O)c2)cc1 | 0.131 µM | 0.102 µM | 0.0947 µM | 0.106 µM | 0.0775 µM | 100% | 54.5% | 34.8% | 35.5% | 99.7% | 50.2% | 35% | 31% | 89% | 48.3% | 30.8% | 33.9% | 94.7% | 51% | 30.1% | viability, T/C (second compound 0.1 µM, first compound 0.00316 µM): 111%; viability, T/C (second compound 0.1 µM, first compound 0.01 µM): 101%; viability, T/C (second compound 0.316 µM, first compound 0.00316 µM): 102%; viability, T/C (second compound 0.316 µM, first compound 0.01 µM): 93%; viability, T/C (second compound 1 µM, first compound 0.00316 µM): 94.7%; viability, T/C (second compound 1 µM, first compound 0.01 µM): 97.8%; viability, T/C (second compound 3.16 µM, first compound 0.00316 µM): 91.8%; viability, T/C (second compound 3.16 µM, first compound 0.01 µM): 99.5%; viability, T/C [27]: 29.5%; viability, T/C (second compound 10 µM, first compound 0.00316 µM): 90.7%; viability, T/C (second compound 10 µM, first compound 0.01 µM): 90.5%; viability, T/C [30]: 80.9%; viability, T/C [31]: 41.2%; viability, T/C [32]: 27.1%; viability, T/C [33]: 26.1% |
| COc1ccc([C@@H](O)c2cc(-c3ncnc4cc(N5CCOCC5)ccc34)c(F)cc2Cl)nn1 + NC1CC1c1ccc(-c2cccc(O)c2)cc1 | 5.2 µM | 4.86 µM | 4.32 µM | 3.56 µM | 2.74 µM | 86.7% | 90.9% | 84.9% | 77.7% | 94.5% | 88.2% | 90.4% | 80.2% | 84.4% | 88.8% | 79.8% | 75.2% | 88.6% | 93.9% | 77.3% | viability, T/C [10]: 62.1%; viability, T/C [11]: 34.4%; viability, T/C [16]: 57.9%; viability, T/C [17]: 36.7%; viability, T/C [22]: 54%; viability, T/C [23]: 38.2%; viability, T/C [27]: 69.8%; viability, T/C [28]: 51.8%; viability, T/C [29]: 35.1%; viability, T/C [30]: 83.3%; viability, T/C [31]: 77.6%; viability, T/C [32]: 75.2%; viability, T/C [33]: 71.3%; viability, T/C [34]: 46.6%; viability, T/C [35]: 29.9% |
